According to patent US20070078161A1, “Crystalline forms of (+)- and (-) erythro-mefloquine hydrochloride” (priority 2003, published 2007):

Columns and labels:
[1] = grinding of form A sample, X-ray powder diffraction; format: physicochemical; conditions: slightly ground to particle size approximately 1 to 10 μm
Method: This sample was slightly ground to reduce the particle size to approximately 1 to 10 μm and to avoid this textural effect. The strongest peak intensities are thus reduced and a few of the small peaks disappear.
Powder X-ray Diffraction (PXRD): PXRD is performed on a Philips 1710 powder X-ray diffractometer using CuKα radiation. D-spacings are calculated from the 2θ values using the wavelength of 1.54060 Å. Generally, 2θ values are within an error of ±0.1-0.2°. The experimental error on the d-spacing values is therefore dependent on the peak location.

[2] = suspensions of mixtures of forms A, B and C, 2° C. to 75° C.
[3] = solubility behaviour in ethanol/water mixtures; format: physicochemical
Description: This effect may be used to initiate precipitation and crystallisation by the addition of water to a solution of (+)- or (−)-mefloquine hydrochloride and also to apply seeding techniques using seeds with a desired morphology such as crystalline form A in cubic or cube-like form. However, other non-solvents may be used to initiate precipitation from solution in a solvent such as hydrocarbons (hexane, heptane, cyclohexane and methylcyclohexane) or ethers (t-butyl methyl ether).

Cl.OC(c1cc(C(F)(F)F)nc2c(C(F)(F)F)cccc12)C1CCCCN1 (stereo not shown) [form A]
crystal form after grinding [1]: still present after grinding

Cl.OC(c1cc(C(F)(F)F)nc2c(C(F)(F)F)cccc12)C1CCCCN1 (stereo not shown) [form B]
relative stability of crystalline forms [2]: metastable

Cl.OC(c1cc(C(F)(F)F)nc2c(C(F)(F)F)cccc12)C1CCCCN1 (stereo not drawn) [(+)- or (−)-mefloquine hydrochloride]
solubility on addition of certain amounts of water to pure ethanol ([3]; lower water amounts): increased
solubility relative to pure ethanol ([3]; water content of above 50% (v/v)): lower than in pure ethanol
